Numbers after ± are expanded uncertainties.
Settings: 101.33 kPa, Liquid; for speed of sound: Linear variable-path acoustic interferometer; for mass density: Pycnometric method

Row | mass density (308.15 K) [kg/m3] | SMILES | speed of sound (298.15 K) [m/s] | mass density (298.15 K) [kg/m3]
1 | – | Cc1ccccc1C [1,2-dimethylbenzene] | 1346 ± 2 | 875.9 ± 0.28
2 | – | Cc1ccc(C)cc1 [1,4-dimethylbenzene] | 1310 ± 2 | 856.65 ± 0.28
3 | – | c1ccccc1 [benzene] | 1298 ± 3 | 873.64 ± 0.46
4 | 868.81 ± 0.49 | C1CCOCC1 [tetrahydropyran] | 1272 ± 3 | –
5 | – | Cc1ccccc1 [toluene] | 1303 ± 2 | 862.22 ± 0.31

From the NIST ThermoML archive (doi:10.1007/s10765-011-0997-8)
